Reference: patent publication US20250009737A1, “COMPOUNDS AND METHODS FOR THE TARGETED DEGRADATION OF ANDROGEN RECEPTOR” (Arvinas Operations, Inc., priority 2023, published 2025)
Read-outs that look alike come from different tables or passages of the source.

Key:
Format in all cases: in vitro ADME
CYP2C9 mRNA = CYP2C9 mRNA induction in cryopreserved human hepatocytes; settings: 0.03-30 μM; for CYP2C9 mRNA Fold induction: human hepatocytes, 48 hours
CYP3A4 mRNA = CYP3A4 mRNA induction in cryopreserved human hepatocytes; settings: for CYP3A4 mRNA induction, % PC: % of positive control response; for CYP3A4 mRNA Fold induction: human hepatocytes, maximal
CYP2B6 = molecular target: T1, CYP2B6 (Homo sapiens, UniProt P20813); assay: Direct and time-dependent CYP2B6 inhibition in pooled human liver microsomes; settings: pooled HLM, substrate Bupropion 50 μM
T1 construct: evaluated in pooled human liver microsomes (HLM); from tissue; host or cells: pooled human liver microsomes
T1 sequence (P20813 whole entry): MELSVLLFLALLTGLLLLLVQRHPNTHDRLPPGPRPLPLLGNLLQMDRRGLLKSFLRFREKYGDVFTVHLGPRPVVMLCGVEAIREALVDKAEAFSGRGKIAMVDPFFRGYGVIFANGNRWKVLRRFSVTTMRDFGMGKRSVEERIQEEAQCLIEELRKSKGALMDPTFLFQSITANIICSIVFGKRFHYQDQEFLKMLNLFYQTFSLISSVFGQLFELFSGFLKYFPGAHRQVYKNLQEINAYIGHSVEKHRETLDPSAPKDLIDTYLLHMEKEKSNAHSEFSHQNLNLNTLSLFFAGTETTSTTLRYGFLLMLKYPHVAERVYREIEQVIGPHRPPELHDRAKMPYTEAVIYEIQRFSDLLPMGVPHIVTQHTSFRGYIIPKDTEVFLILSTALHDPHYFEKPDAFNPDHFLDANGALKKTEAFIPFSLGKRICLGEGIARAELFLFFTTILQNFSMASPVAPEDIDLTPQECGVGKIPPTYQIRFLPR
Protocol: (§1) The induction potential of Compound A on CYP enzymes was assessed in cryopreserved human hepatocytes from three donors. Following treatment for with Compound A at concentrations of 0.03-30 μM for 48 hours, mRNA levels for CYP1A2, 2B6, 2C8, 2C9, 2C19, and 3A4 were determined by semiquantitative real-time polymerase chain reaction (PCR). Test article concentrations during 24-hour incubation were determined. The potential of Compound A to cause direct and time-dependent inhibition (TDI) of the activities of CYP1A2, 2B6, 2C8, 2C9, 2C19, 2D6, and 3A4 was evaluated in pooled human liver microsomes (HLM) at 0.2-15 μM. Probe substrate concentrations around Km were used for direction inhibition and initial TDI assays. For TDI assay, Compound A was pre-incubated with pooled HLM with and without NADPH for 30 minutes prior to incubation with a single concentration of probe substrate.

CYP2C9 = molecular target: T2, CYP2C9 (Homo sapiens, UniProt P11712); assay: Direct and time-dependent CYP2C9 inhibition in pooled human liver microsomes; settings: pooled HLM, substrate Diclofenac 5 μM
T2 construct: evaluated in pooled human liver microsomes (HLM); from tissue; host or cells: pooled human liver microsomes
T2 sequence (P11712 whole entry): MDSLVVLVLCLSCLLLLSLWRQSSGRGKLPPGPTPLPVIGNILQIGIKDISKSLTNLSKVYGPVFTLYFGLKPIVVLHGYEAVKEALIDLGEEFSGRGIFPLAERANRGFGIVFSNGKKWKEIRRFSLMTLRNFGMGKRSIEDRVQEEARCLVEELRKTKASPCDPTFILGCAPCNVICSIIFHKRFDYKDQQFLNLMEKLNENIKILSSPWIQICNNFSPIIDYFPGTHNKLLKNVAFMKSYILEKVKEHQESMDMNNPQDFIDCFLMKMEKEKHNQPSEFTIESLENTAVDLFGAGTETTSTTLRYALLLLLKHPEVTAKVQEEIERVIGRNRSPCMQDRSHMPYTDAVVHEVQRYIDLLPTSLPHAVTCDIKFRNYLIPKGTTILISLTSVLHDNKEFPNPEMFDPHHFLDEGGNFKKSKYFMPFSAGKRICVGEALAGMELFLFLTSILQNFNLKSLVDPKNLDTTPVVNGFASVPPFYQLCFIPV
Protocol: as §1

CYP2C19 = molecular target: T3, CYP2C19 (Homo sapiens, UniProt P33261); assay: Direct and time-dependent CYP2C19 inhibition in pooled human liver microsomes; settings: pooled HLM, substrate S-Mephenytoin 20 μM
T3 construct: evaluated in pooled human liver microsomes (HLM); from tissue; host or cells: pooled human liver microsomes
T3 sequence (P33261 whole entry): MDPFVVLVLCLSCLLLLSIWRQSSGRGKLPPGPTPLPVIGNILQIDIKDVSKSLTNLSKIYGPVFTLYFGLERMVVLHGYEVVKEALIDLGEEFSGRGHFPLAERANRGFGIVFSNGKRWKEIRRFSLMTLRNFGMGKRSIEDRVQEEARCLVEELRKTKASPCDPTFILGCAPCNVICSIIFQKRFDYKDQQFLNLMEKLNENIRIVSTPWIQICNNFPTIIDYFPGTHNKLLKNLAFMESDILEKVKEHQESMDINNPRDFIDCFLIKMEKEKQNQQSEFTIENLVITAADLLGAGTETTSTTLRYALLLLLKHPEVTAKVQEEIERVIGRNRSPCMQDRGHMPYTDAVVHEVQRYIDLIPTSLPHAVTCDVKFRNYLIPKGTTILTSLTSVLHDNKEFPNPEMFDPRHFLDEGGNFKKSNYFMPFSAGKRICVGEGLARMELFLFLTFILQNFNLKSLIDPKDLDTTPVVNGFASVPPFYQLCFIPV
Protocol: as §1

CYP2D6 = molecular target: T4, CYP2D6 (Homo sapiens, UniProt P10635); assay: Direct and time-dependent CYP2D6 inhibition in pooled human liver microsomes; settings: pooled HLM, substrate Bufuralol 5 μM
T4 construct: evaluated in pooled human liver microsomes (HLM); from tissue; host or cells: pooled human liver microsomes
T4 sequence (P10635 whole entry): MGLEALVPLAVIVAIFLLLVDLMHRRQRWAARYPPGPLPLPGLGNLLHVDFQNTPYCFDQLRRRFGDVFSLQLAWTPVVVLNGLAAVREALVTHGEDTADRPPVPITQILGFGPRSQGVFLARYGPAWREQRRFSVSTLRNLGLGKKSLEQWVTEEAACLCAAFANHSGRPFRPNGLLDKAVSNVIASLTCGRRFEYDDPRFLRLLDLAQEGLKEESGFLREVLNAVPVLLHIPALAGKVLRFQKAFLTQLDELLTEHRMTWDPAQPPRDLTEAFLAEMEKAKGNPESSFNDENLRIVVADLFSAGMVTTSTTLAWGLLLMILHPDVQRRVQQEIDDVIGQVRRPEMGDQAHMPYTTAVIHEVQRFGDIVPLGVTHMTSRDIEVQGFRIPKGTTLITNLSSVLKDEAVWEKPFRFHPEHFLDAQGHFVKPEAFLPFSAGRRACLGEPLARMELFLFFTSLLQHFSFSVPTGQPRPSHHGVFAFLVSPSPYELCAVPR
Protocol: as §1

CYP3A = CYP3A (Homo sapiens, UniProt P08684); assay: Direct and time-dependent CYP3A inhibition in pooled human liver microsomes; settings: pooled HLM, read-out: IC50, No Pre-incubation
Sequence of CYP3A (P08684 2-503): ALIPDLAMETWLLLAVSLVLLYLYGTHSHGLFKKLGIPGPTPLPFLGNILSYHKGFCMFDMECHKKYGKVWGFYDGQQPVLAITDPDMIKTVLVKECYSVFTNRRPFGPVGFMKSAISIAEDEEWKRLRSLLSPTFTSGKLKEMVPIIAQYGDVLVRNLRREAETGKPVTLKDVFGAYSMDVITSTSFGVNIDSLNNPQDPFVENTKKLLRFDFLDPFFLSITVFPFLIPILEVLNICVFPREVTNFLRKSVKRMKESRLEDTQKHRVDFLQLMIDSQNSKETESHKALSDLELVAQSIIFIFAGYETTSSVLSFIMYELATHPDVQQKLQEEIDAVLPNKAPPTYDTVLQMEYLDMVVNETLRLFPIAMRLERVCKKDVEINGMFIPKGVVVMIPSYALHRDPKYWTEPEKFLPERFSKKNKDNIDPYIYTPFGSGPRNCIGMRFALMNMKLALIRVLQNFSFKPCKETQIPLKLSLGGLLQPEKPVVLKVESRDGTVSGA
Protocol: as §1

[1] = Metabolite profiling / stability in human hepatocyte suspension
Protocol: (§2) Metabolite profiling was conducted in incubations of Compound A (2 and 10 μM) with HLM (up to 60 min), human hepatocyte suspension (up to 240 min) and human plasma (up to 360 min). In addition, Compound A (2 μM) was incubated with recombinant human CYP enzymes CYP1A2, CYP2A6, CYP2B6, CYP2C8, CYP2C9, CYP2C19, CYP2D6, CYP2E1, CYP3A4 and CYP3A5.
The DDI potential of Compound A as a victim via CYP mediated pathways was examined in HLM, human hepatocyte suspensions, and human recombinant CYP enzymes.

[2] = Metabolite profiling / stability in human plasma
Protocol: as §2

[3] = Metabolite profiling using human plasma, HLM and human hepatocytes; settings: human plasma
Protocol: as §2

OAT1 = molecular target: T5, OAT1 (Homo sapiens, UniProt Q4U2R8); assay: OAT1 uptake transporter inhibition in MDCKII or HEK293 cells; settings: substrate Estrone-3-sulfate (E3S) (5 μM)
T5 construct: expressed in transfected cells; host or cells: MDCKII or HEK293
Protocol: (§3) In addition, the inhibition potential against efflux transporters (P-glycoprotein (Pgp) and breast cancer resistance protein (BCRP)) and uptake transporters (MATE1, MATE2-K, OATP1B1, OATP1B3, OAT1, OAT3, and OCT2) was assessed using single transporter over-expressed cell monolayers (MDCK II or HEK293) or inside-out vesicles.
(§4) The potential of Compound A to inhibit Pgp or BCRP was tested for bidirectional transport of the probe substrates in Pgp or BCRP-expressed MDCKII and control monolayers at Compound A concentrations of 0.07-5 μM. Pgp and BCR inhibition were tested in inside-out membrane vesicles prepared from HEK293 overexpressing human Pgp and BCR at concentrations of 0.01-9 μM Compound A in the presence of 4 mM MgATP or MgAMP.

OAT3 = molecular target: T6, OAT3 (Homo sapiens, UniProt Q8TCC7); assay: OAT3 uptake transporter inhibition in MDCKII or HEK293 cells; settings: substrate E3S (1 μM)
T6 construct: expressed in transfected cells; host or cells: MDCKII or HEK293
T6 sequence (Q8TCC7 whole entry): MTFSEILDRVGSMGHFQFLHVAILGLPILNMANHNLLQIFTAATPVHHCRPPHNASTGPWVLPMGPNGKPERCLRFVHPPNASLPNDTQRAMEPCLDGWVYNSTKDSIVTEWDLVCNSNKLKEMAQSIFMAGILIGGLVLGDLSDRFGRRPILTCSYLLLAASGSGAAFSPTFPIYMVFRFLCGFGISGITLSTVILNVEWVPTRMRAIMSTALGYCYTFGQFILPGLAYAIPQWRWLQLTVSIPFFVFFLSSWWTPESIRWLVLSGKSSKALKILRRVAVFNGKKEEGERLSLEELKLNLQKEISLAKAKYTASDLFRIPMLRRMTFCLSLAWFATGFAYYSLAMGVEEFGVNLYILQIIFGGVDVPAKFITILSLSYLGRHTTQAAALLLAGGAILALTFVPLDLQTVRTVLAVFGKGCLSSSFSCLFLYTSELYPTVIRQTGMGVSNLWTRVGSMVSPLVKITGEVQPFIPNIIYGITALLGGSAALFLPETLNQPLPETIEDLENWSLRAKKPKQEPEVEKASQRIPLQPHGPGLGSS
Protocol: as §3, §4

OCT2 = molecular target: T7, OCT2 (Homo sapiens, UniProt O15244); assay: OCT2 uptake transporter inhibition in MDCKII or HEK293 cells; settings: substrate Metformin (10 μM)
T7 construct: expressed in transfected cells; host or cells: MDCKII or HEK293
T7 sequence (O15244 whole entry): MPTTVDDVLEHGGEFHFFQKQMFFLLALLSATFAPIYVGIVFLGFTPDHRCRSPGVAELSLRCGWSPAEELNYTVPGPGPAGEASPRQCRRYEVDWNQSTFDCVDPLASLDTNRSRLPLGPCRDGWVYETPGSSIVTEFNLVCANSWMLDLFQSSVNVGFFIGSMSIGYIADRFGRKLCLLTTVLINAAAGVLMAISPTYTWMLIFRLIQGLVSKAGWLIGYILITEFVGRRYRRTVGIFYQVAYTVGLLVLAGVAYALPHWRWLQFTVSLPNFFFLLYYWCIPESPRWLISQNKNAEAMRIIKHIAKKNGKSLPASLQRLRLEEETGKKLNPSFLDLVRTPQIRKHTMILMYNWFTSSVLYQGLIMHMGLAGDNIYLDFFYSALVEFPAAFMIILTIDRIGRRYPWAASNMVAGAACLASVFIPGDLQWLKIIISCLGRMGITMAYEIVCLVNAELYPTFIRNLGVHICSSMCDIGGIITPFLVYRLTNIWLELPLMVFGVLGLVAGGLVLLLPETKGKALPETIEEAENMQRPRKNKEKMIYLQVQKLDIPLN
Protocol: as §3, §4

Pgp = Pgp (Homo sapiens, UniProt P08183); assay: Pgp inhibition in inside-out membrane vesicles from HEK293; design: expressed in transfected cells; host or cells: HEK293 (inside-out membrane vesicles)
Sequence of Pgp (P08183 whole entry): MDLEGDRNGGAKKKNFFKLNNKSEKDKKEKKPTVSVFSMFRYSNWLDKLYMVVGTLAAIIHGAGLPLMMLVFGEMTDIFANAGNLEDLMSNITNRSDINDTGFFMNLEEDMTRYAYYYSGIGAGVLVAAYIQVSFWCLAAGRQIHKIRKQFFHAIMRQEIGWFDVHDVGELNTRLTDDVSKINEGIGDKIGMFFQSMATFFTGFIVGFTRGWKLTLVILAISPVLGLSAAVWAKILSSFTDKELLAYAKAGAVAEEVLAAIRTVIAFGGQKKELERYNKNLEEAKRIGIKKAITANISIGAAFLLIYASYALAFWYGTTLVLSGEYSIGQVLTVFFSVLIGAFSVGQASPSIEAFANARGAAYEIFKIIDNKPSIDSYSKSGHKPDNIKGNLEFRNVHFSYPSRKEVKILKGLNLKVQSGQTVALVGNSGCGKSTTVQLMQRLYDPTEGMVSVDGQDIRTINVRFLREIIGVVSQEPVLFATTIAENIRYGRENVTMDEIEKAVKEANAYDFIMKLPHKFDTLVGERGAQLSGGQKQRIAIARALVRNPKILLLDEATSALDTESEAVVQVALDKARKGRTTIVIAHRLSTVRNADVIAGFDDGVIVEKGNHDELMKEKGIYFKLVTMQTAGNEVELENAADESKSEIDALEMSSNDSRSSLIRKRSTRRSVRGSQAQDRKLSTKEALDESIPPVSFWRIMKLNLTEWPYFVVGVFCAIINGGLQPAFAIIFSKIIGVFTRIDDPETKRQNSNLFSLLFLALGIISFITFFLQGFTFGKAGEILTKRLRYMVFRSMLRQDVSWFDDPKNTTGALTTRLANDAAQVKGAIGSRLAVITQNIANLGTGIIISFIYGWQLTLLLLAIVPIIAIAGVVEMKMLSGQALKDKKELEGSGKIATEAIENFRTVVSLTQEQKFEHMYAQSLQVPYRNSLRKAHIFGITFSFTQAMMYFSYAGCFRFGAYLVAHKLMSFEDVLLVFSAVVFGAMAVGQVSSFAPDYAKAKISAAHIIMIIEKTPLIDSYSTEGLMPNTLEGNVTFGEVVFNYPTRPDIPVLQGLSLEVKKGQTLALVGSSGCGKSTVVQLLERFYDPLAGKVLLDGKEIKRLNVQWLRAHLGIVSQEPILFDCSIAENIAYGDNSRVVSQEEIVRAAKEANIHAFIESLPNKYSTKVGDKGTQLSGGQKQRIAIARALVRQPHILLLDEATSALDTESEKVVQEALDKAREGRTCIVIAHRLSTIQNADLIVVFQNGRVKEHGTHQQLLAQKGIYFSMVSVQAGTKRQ
Protocol: as §3, §4

[4] = read-out: IC50, 30 min Pre-incubation
[5] = read-out: IC50, No Pre-incubation

## COc1cc(O[C@H]2C(C)(C)[C@H](NC(=O)c3ccc(N4CCC(CN5CCN(c6ccc(C(=O)N[C@H]7CCC(=O)NC7=O)c(F)c6)CC5)CC4)cc3)C2(C)C)ccc1C#N [Compound A, 4-(4-((1-(4-(((1R,3R)-3-(4-cyano-3-methoxyphenoxy)-2,2,4,4-tetramethylcyclobutyl)carbamoyl)phenyl)piperidin-4-yl)methyl)piperazin-1-yl)-N—((S)-2,6-dioxopiperidin-3-yl)-2-fluorobenzamide]
CYP2C9 mRNA; Donor 1
  CYP2C9 mRNA Fold induction: <2 Fold
CYP2C9 mRNA; Donor 2
  CYP2C9 mRNA Fold induction: <2 Fold
CYP2C9 mRNA; Donor 3
  CYP2C9 mRNA Fold induction: <2 Fold
CYP2C9 mRNA; all three donors of human hepatocytes
  Induction of CYP2C9 mRNA: did not induce
CYP3A4 mRNA; Donor 1
  CYP3A4 mRNA induction, % PC: 5 % PC
  CYP3A4 mRNA Fold induction: 8.8 Fold
CYP3A4 mRNA; Donor 2
  CYP3A4 mRNA induction, % PC: 6 % PC
  CYP3A4 mRNA Fold induction: 2.5 Fold
CYP3A4 mRNA; Donor 3
  CYP3A4 mRNA induction, % PC: 5 % PC
  CYP3A4 mRNA Fold induction: 3.3 Fold
CYP3A4 mRNA; all three donors, at 0.1-0.3 μM
  CYP3A4 mRNA induction, % of positive control response: 4-6%
CYP3A4 mRNA; human, cryopreserved human hepatocytes, all three donors, at 0.1-0.3 μM, read-out: Maximal fold induction in CYP3A4 mRNA
  fold induction at 48 h: 2.5 to 8.8
CYP2B6; [4]
  IC50: > 15 µM
CYP2B6; [5]
  IC50: > 15 µM
CYP2C9; [4]
  IC50: > 15 µM
CYP2C9; [5]
  IC50: > 15 µM
CYP2C19; [4]
  IC50: > 15 µM
CYP2C19; [5]
  IC50: > 15 µM
CYP2D6; [4]
  IC50: > 15 µM
CYP2D6; [5]
  IC50: > 15 µM
CYP3A; probe midazolam (2 μM), substrate Midazolam 2 μM
  IC50: > 15 µM
CYP3A; probe testosterone (50 μM), substrate Testosterone 50 μM
  IC50: > 15 µM
[1]; human hepatocyte suspensions, 240 min
  % Parent at 0 Min, HH at 240 min: 86.9%
[1]; up to 240 min
  Stability in human hepatocyte suspension: relatively stable
[2]
  % Parent at 0 Min, HP at 360 min: 77.0%
[3]
  Major metabolic pathway: hydrolysis (M825/1)
OAT1
  IC50: > 3.75 µM
OAT3
  IC50: > 3.75 µM
OCT2
  IC50: > 3.75 µM
Pgp; human, probe NMQ (1 μM), Vesicles, substrate NMQ (1 μM), read-out: Maximal % Inhibition
  inhibition at 1 µM: 87%
Pgp; vesicle assays
  IC50: 0.23 µM
